In brackets after ≈: the same amount, converted by molar mass.
Legend:
Format in all cases: functional
Penicillium [1] = test: Antimicrobial activity against Penicillium wild strain assessed as diameter of growth inhibition zone at 250 ug/ml after 48-96 hr by agar cup diffusion method; conditions: read-out: DIZ
Penicillium [2] = test: Antimicrobial activity against Penicillium wild strain assessed as diameter of growth inhibition zone at 100 ug/ml after 48-96 hr by agar cup diffusion method; conditions: read-out: DIZ
Trichophyton rubrum [3] = test: Antimicrobial activity against Trichophyton rubrum MTCC 296 assessed as diameter of growth inhibition zone at 100 ug/ml after 48-96 hr by agar cup diffusion method; conditions: read-out: DIZ
Aspergillus clavatus [4] = test: Antimicrobial activity against Aspergillus clavatus MTCC 1323 assessed as diameter of growth inhibition zone at 100 ug/ml after 48-96 hr by agar cup diffusion method; conditions: read-out: DIZ
Candida albicans [5] = test: Antimicrobial activity against Candida albicans MTCC 227 assessed as diameter of growth inhibition zone at 100 ug/ml after 48-96 hr by agar cup diffusion method; conditions: read-out: DIZ
Penicillium [6] = test: Antimicrobial activity against Penicillium wild strain assessed as diameter of growth inhibition zone at 50 ug/ml after 48-96 hr by agar cup diffusion method; conditions: read-out: DIZ
Trichophyton rubrum [7] = test: Antimicrobial activity against Trichophyton rubrum MTCC 296 assessed as diameter of growth inhibition zone at 50 ug/ml after 48-96 hr by agar cup diffusion method; conditions: read-out: DIZ
Aspergillus clavatus [8] = test: Antimicrobial activity against Aspergillus clavatus MTCC 1323 assessed as diameter of growth inhibition zone at 50 ug/ml after 48-96 hr by agar cup diffusion method; conditions: read-out: DIZ
Candida albicans [9] = test: Antimicrobial activity against Candida albicans MTCC 227 assessed as diameter of growth inhibition zone at 50 ug/ml after 48-96 hr by agar cup diffusion method; conditions: read-out: DIZ
Penicillium [10] = test: Antimicrobial activity against Penicillium wild strain assessed as diameter of growth inhibition zone at 25 ug/ml after 48-96 hr by agar cup diffusion method; conditions: read-out: DIZ
Trichophyton rubrum [11] = test: Antimicrobial activity against Trichophyton rubrum MTCC 296 assessed as diameter of growth inhibition zone at 25 ug/ml after 48-96 hr by agar cup diffusion method; conditions: read-out: DIZ
Aspergillus clavatus [12] = test: Antimicrobial activity against Aspergillus clavatus MTCC 1323 assessed as diameter of growth inhibition zone at 25 ug/ml after 48-96 hr by agar cup diffusion method; conditions: read-out: DIZ
Candida albicans [13] = test: Antimicrobial activity against Candida albicans MTCC 227 assessed as diameter of growth inhibition zone at 25 ug/ml after 48-96 hr by agar cup diffusion method; conditions: read-out: DIZ
Penicillium [14] = test: Antimicrobial activity against Penicillium wild strain by agar cup diffusion method
Aspergillus clavatus [15] = test: Antimicrobial activity against Aspergillus clavatus MTCC 1323 by agar cup diffusion method
Pseudomonas aeruginosa [16] = test: Antimicrobial activity against Pseudomonas aeruginosa MTCC 1688 assessed as diameter of growth inhibition zone at 25 ug/ml after 18-24 hr by agar cup diffusion method; conditions: read-out: DIZ
Escherichia coli [17] = test: Antimicrobial activity against Escherichia coli MTCC 443 assessed as diameter of growth inhibition zone at 25 ug/ml after 18-24 hr by agar cup diffusion method; conditions: read-out: DIZ
Staphylococcus aureus [18] = test: Antimicrobial activity against Staphylococcus aureus MTCC 96 assessed as diameter of growth inhibition zone at 25 ug/ml after 18-24 hr by agar cup diffusion method; conditions: read-out: DIZ
Streptococcus pyogenes [19] = test: Antimicrobial activity against Streptococcus pyogenes MTCC 442 assessed as diameter of growth inhibition zone at 25 ug/ml after 18-24 hr by agar cup diffusion method; conditions: read-out: DIZ
Klebsiella pneumoniae [20] = test: Antimicrobial activity against Klebsiella pneumoniae MTCC 109 by agar cup diffusion method
Escherichia coli [21] = test: Antimicrobial activity against Escherichia coli MTCC 443 by agar cup diffusion method
Pseudomonas aeruginosa [22] = test: Antimicrobial activity against Pseudomonas aeruginosa MTCC 1688 by agar cup diffusion method
Staphylococcus aureus [23] = test: Antimicrobial activity against Staphylococcus aureus MTCC 96 by agar cup diffusion method
Streptococcus pyogenes [24] = test: Antimicrobial activity against Streptococcus pyogenes MTCC 442 by agar cup diffusion method
Trichophyton rubrum [25] = test: Antimicrobial activity against Trichophyton rubrum MTCC 296 by agar cup diffusion method
Candida albicans [26] = test: Antimicrobial activity against Candida albicans MTCC 227 by agar cup diffusion method
Klebsiella pneumoniae [27] = test: Antimicrobial activity against Klebsiella pneumoniae MTCC 109 assessed as diameter of growth inhibition zone at 250 ug/ml after 18-24 hr by agar cup diffusion method; conditions: read-out: DIZ
Pseudomonas aeruginosa [28] = test: Antimicrobial activity against Pseudomonas aeruginosa MTCC 1688 assessed as diameter of growth inhibition zone at 250 ug/ml after 18-24 hr by agar cup diffusion method; conditions: read-out: DIZ
Escherichia coli [29] = test: Antimicrobial activity against Escherichia coli MTCC 443 assessed as diameter of growth inhibition zone at 250 ug/ml after 18-24 hr by agar cup diffusion method; conditions: read-out: DIZ
Staphylococcus aureus [30] = test: Antimicrobial activity against Staphylococcus aureus MTCC 96 assessed as diameter of growth inhibition zone at 250 ug/ml after 18-24 hr by agar cup diffusion method; conditions: read-out: DIZ
Streptococcus pyogenes [31] = test: Antimicrobial activity against Streptococcus pyogenes MTCC 442 assessed as diameter of growth inhibition zone at 250 ug/ml after 18-24 hr by agar cup diffusion method; conditions: read-out: DIZ
Klebsiella pneumoniae [32] = test: Antimicrobial activity against Klebsiella pneumoniae MTCC 109 assessed as diameter of growth inhibition zone at 100 ug/ml after 18-24 hr by agar cup diffusion method; conditions: read-out: DIZ
Pseudomonas aeruginosa [33] = test: Antimicrobial activity against Pseudomonas aeruginosa MTCC 1688 assessed as diameter of growth inhibition zone at 100 ug/ml after 18-24 hr by agar cup diffusion method; conditions: read-out: DIZ
Escherichia coli [34] = test: Antimicrobial activity against Escherichia coli MTCC 443 assessed as diameter of growth inhibition zone at 100 ug/ml after 18-24 hr by agar cup diffusion method; conditions: read-out: DIZ
Staphylococcus aureus [35] = test: Antimicrobial activity against Staphylococcus aureus MTCC 96 assessed as diameter of growth inhibition zone at 100 ug/ml after 18-24 hr by agar cup diffusion method; conditions: read-out: DIZ
Streptococcus pyogenes [36] = test: Antimicrobial activity against Streptococcus pyogenes MTCC 442 assessed as diameter of growth inhibition zone at 100 ug/ml after 18-24 hr by agar cup diffusion method; conditions: read-out: DIZ
Klebsiella pneumoniae [37] = test: Antimicrobial activity against Klebsiella pneumoniae MTCC 109 assessed as diameter of growth inhibition zone at 50 ug/ml after 18-24 hr by agar cup diffusion method; conditions: read-out: DIZ
Pseudomonas aeruginosa [38] = test: Antimicrobial activity against Pseudomonas aeruginosa MTCC 1688 assessed as diameter of growth inhibition zone at 50 ug/ml after 18-24 hr by agar cup diffusion method; conditions: read-out: DIZ
Escherichia coli [39] = test: Antimicrobial activity against Escherichia coli MTCC 443 assessed as diameter of growth inhibition zone at 50 ug/ml after 18-24 hr by agar cup diffusion method; conditions: read-out: DIZ
Staphylococcus aureus [40] = test: Antimicrobial activity against Staphylococcus aureus MTCC 96 assessed as diameter of growth inhibition zone at 50 ug/ml after 18-24 hr by agar cup diffusion method; conditions: read-out: DIZ
Streptococcus pyogenes [41] = test: Antimicrobial activity against Streptococcus pyogenes MTCC 442 assessed as diameter of growth inhibition zone at 50 ug/ml after 18-24 hr by agar cup diffusion method; conditions: read-out: DIZ
Klebsiella pneumoniae [42] = test: Antimicrobial activity against Klebsiella pneumoniae MTCC 109 assessed as diameter of growth inhibition zone at 25 ug/ml after 18-24 hr by agar cup diffusion method; conditions: read-out: DIZ
Trichophyton rubrum [43] = test: Antimicrobial activity against Trichophyton rubrum MTCC 296 assessed as diameter of growth inhibition zone at 250 ug/ml after 48-96 hr by agar cup diffusion method; conditions: read-out: DIZ
Aspergillus clavatus [44] = test: Antimicrobial activity against Aspergillus clavatus MTCC 1323 assessed as diameter of growth inhibition zone at 250 ug/ml after 48-96 hr by agar cup diffusion method; conditions: read-out: DIZ
Candida albicans [45] = test: Antimicrobial activity against Candida albicans MTCC 227 assessed as diameter of growth inhibition zone at 250 ug/ml after 48-96 hr by agar cup diffusion method; conditions: read-out: DIZ

SMILES: O=C(/C=C/c1ccc(Cl)cc1)C1C(=O)NC(=S)NC1=O
- zone of inhibition at 250 µg/mL (Penicillium [1]): 25 mm
- zone of inhibition at 100 µg/mL (Penicillium [2]): 23 mm
- zone of inhibition at 100 µg/mL (Trichophyton rubrum [3]): 21 mm
- zone of inhibition at 100 µg/mL (Aspergillus clavatus [4]): 22 mm
- zone of inhibition at 100 µg/mL (Candida albicans [5]): 22 mm
- zone of inhibition at 50 µg/mL (Penicillium [6]): 22 mm
- zone of inhibition at 50 µg/mL (Trichophyton rubrum [7]): 20 mm
- zone of inhibition at 50 µg/mL (Aspergillus clavatus [8]): 20 mm
- zone of inhibition at 50 µg/mL (Candida albicans [9]): 21 mm
- zone of inhibition at 25 µg/mL (Penicillium [10]): 19 mm
- zone of inhibition at 25 µg/mL (Trichophyton rubrum [11]): 18 mm
- zone of inhibition at 25 µg/mL (Aspergillus clavatus [12]): 18 mm
- zone of inhibition at 25 µg/mL (Candida albicans [13]): 20 mm
- MFC (Penicillium [14]): > 1000 µg/mL
- MIC (Penicillium [14]): > 1000 µg/mL
- MFC (Aspergillus clavatus [15]): 500 µg/mL (≈ 1620 µM)
- MIC (Aspergillus clavatus [15]): 500 µg/mL (≈ 1620 µM)
- zone of inhibition at 25 µg/mL (Pseudomonas aeruginosa [16]): 11 mm
- zone of inhibition at 25 µg/mL (Escherichia coli [17]): 11 mm
- zone of inhibition at 25 µg/mL (Staphylococcus aureus [18]): 11 mm
- zone of inhibition at 25 µg/mL (Streptococcus pyogenes [19]): 11 mm
- MBC (Klebsiella pneumoniae [20]): 125 µg/mL (≈ 405 µM)
- MIC (Klebsiella pneumoniae [20]): 100 µg/mL (≈ 324 µM)
- MBC (Escherichia coli [21]): 125 µg/mL (≈ 405 µM)
- MIC (Escherichia coli [21]): 125 µg/mL (≈ 405 µM)
- MBC (Pseudomonas aeruginosa [22]): 250 µg/mL (≈ 810 µM)
- MIC (Pseudomonas aeruginosa [22]): 200 µg/mL (≈ 648 µM)
- MBC (Staphylococcus aureus [23]): 100 µg/mL (≈ 324 µM)
- MIC (Staphylococcus aureus [23]): 100 µg/mL (≈ 324 µM)
- MBC (Streptococcus pyogenes [24]): 125 µg/mL (≈ 405 µM)
- MIC (Streptococcus pyogenes [24]): 100 µg/mL (≈ 324 µM)
- MFC (Trichophyton rubrum [25]): > 1000 µg/mL
- MIC (Trichophyton rubrum [25]): > 1000 µg/mL
- MFC (Candida albicans [26]): 500 µg/mL (≈ 1620 µM)
- MIC (Candida albicans [26]): 500 µg/mL (≈ 1620 µM)
- zone of inhibition at 250 µg/mL (Klebsiella pneumoniae [27]): 20 mm
- zone of inhibition at 250 µg/mL (Pseudomonas aeruginosa [28]): 15 mm
- zone of inhibition at 250 µg/mL (Escherichia coli [29]): 19 mm
- zone of inhibition at 250 µg/mL (Staphylococcus aureus [30]): 15 mm
- zone of inhibition at 250 µg/mL (Streptococcus pyogenes [31]): 19 mm
- zone of inhibition at 100 µg/mL (Klebsiella pneumoniae [32]): 17 mm
- zone of inhibition at 100 µg/mL (Pseudomonas aeruginosa [33]): 13 mm
- zone of inhibition at 100 µg/mL (Escherichia coli [34]): 17 mm
- zone of inhibition at 100 µg/mL (Staphylococcus aureus [35]): 13 mm
- zone of inhibition at 100 µg/mL (Streptococcus pyogenes [36]): 17 mm
- zone of inhibition at 50 µg/mL (Klebsiella pneumoniae [37]): 15 mm
- zone of inhibition at 50 µg/mL (Pseudomonas aeruginosa [38]): 12 mm
- zone of inhibition at 50 µg/mL (Escherichia coli [39]): 14 mm
- zone of inhibition at 50 µg/mL (Staphylococcus aureus [40]): 12 mm
- zone of inhibition at 50 µg/mL (Streptococcus pyogenes [41]): 14 mm
- zone of inhibition at 25 µg/mL (Klebsiella pneumoniae [42]): 13 mm
- zone of inhibition at 250 µg/mL (Trichophyton rubrum [43]): 22 mm
- zone of inhibition at 250 µg/mL (Aspergillus clavatus [44]): 22 mm
- zone of inhibition at 250 µg/mL (Candida albicans [45]): 23 mm
